Data on two compounds can be found in patent US20190216830A1, “OPHTHALMIC COMPOSITIONS” (Aciont Inc., priority 2017, published 2019).

The structures appear in SMILES notation. Values joined by “and” are separate entries in the source; they are usually repeats but may differ in a detail not shown here. Identical values can stand only once.

Data set [1] relates to rabbit coronary microvessel endothelium. Particulars: cited from earlier work.
Data set [2] can be described thus: Toxicokinetic study: plasma DSP and DEX by LC-MS after single device application. Type of data set: in vivo, New Zealand White rabbits. Particulars: after DSP application via device; all four regimens.
Description: For the toxicokinetic study, there were four groups of rabbit. […] Blood was collected and processed for plasma at predose, 5, 30, 60, 120, 240, and 360 minutes, and 24, 48, 72, 96, and 168 hours after administration.
One drop of sterile proparacaine hydrochloride (a local anesthetic) was put on the eye (to be treated) 5 minutes before dose administration. […] The position of the device was checked to ensure that the active agent matrix was in immediate contact with the white part of the eye but not the cornea. Digital timers were used for accurate application times (i.e., 5, 10, or 20 minutes). After the given application duration, the applicator was carefully removed from the eye.
Approximately 1 mL of blood was collected by direct venipuncture of the jugular vein with a 3 mL syringe and 21 GA×1″ needle. […]
Briefly, the samples were assayed by Shimadzu SCL-10A controller with LC-10AD pump. […] The limit of quantitation (LOQ) of this method was 1 ng/mL.
Toxicokinetic data analysis was based on standard noncompartmental pharmacokinetic methods. […] The maximum observed plasma concentration (Cmax) was determined by visual estimation from the data plot. Area under the plasma concentration vs. time curve from 0 to the time of the last measurable concentration (AUC) was calculated by the linear trapezoidal method. […]
In another data set the test system is treated eyes (right eye). Particulars: rabbit, in vivo.

Description for treated eyes (right eye): Ketamine hydrochloride injectable USP (100 mg/mL) and sodium chloride 0.9% USP were from Hospira, Inc. (Lake Forest, Ill.); proparacaine hydrochloride ophthalmic solution was from Bausch & Lomb (Tampa, Fla.); cyclopentolate hydrochloride ophthalmic solution was from Alcon Laboratories (Fort Worth, Tex.); xyrazine and potassium chloride (KCl) were from Sigma-Aldrich (St. Louis, Mo.). Syringes and needles were from Becton, Dickinson and Company (Franklin Lakes, N.J.). The binocular indirect ophthalmoscope used was the Keeler All Pupil II from Keeler Instruments (Broomall, Pa.) and it was complemented with the double aspheric lens 20D/50 mm for posterior chamber examination from Volk Optical Inc (Mentor, Ohio). Young adult New Zealand White rabbits each weighing 3-4 kg were obtained from Western Oregon Rabbit Co. (Philomath, Oreg.). This study complied with the ARVO Statement for the use of Animals in Ophthalmic and Vision Research and was approved by The University of Utah Institutional Animal Care and Use Committee (Salt Lake City, Utah). All animals were acclimated and observed for health issues for at least two weeks prior to being used in the study.
For the ocular toxicity study, there were four groups. […]
Body weights of the animal were taken upon arrival, and then monthly. […] Observations on the anterior and posterior segments of the eye were made, graded, and recorded. […]

Turning to `C[C@@H]1C[C@H]2[C@@H]3CCC4=CC(=O)C=C[C@]4(C)[C@@]3(F)[C@@H](O)C[C@]2(C)[C@@]1(O)C(=O)CO` [DEX, dexamethasone], the “Concentration that can inhibit prostaglandin release” value in data set [1] was 10^−7 M and ~40 ng/mL. Besides, the “Tmax of DEX in plasma” value in data set [2] was determined as 30 min.
For `C[C@@H]1C[C@H]2[C@@H]3CCC4=CC(=O)C=C[C@]4(C)[C@@]3(F)[C@@H](O)C[C@]2(C)[C@@]1(O)C(=O)COP(=O)(O)O` [DSP, Dexamethasone sodium phosphate], the “Ocular findings in treated eyes (conjunctival injection, discharge, corneal haze)” value in the data set with treated eyes (right eye) is “transient and mild in nature”.
